Measured values: patent US20160046618A1, “Cyclopropyl Fused Thiazin-2-Amine Compounds as Beta-Secretase Inhibitors and Methods of Use” (AMGEN INC., priority 2014, published 2016)
Like-named read-outs stand apart in the source and are kept apart here.

Columns and labels:
[1] = system: Aβ40 in conditioned medium of cells stably expressing Amyloid Precursor Protein (APP); experiment: In vitro BACE-1 cell-based assay (Aβ40 sandwich ELISA); conditions: read-out: IC50 IP (μM) BACE1 cell
How it was run: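 APP-stable cells, pre-cultured 24 h at 37° C in DMEM/10% FBS, were treated 24 h with compound in a 10-point series starting at 100 μM or 10 μM (0.1% DMSO final). Secreted Aβ40 in conditioned medium was measured by pAb40/biotin-6E10 sandwich ELISA with Europium time-resolved fluorescence; IC50 from percent inhibition versus concentration.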

[2] = biological target: human recombinant BACE2 (Homo sapiens (Human), UniProt Q9Y5Z0); experiment: In vitro enzymatic BACE2 FRET assay; format: biochemical; conditions: read-out: IC50 IP (μM) BACE2 enzyme
human recombinant BACE2, sequence (Q9Y5Z0 63-518): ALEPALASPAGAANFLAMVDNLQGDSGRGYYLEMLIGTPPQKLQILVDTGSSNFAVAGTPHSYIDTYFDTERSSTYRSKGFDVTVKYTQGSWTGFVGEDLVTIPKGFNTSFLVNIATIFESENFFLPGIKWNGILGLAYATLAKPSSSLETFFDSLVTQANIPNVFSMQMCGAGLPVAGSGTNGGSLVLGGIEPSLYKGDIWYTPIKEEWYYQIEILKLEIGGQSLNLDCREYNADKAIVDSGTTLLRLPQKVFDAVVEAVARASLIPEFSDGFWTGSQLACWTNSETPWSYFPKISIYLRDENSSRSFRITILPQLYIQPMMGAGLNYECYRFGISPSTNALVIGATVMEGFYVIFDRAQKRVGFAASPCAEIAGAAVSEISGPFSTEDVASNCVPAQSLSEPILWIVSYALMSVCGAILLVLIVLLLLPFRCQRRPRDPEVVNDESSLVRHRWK
How it was run: (§1)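 Ni-NTA-purified recombinant enzyme incubated 1 h with 50 nM FRET peptide substrate (fluorophore and quencher flanking the BACE cleavage site). Reaction stopped with Tris buffer raising pH to neutrality; cleavage-released fluorescence read at ex 488/em 590 nm.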

[3] = biological target: Recombinant Cat D (Homo sapiens (Human), UniProt P07339); experiment: In vitro enzymatic Cathepsin D (Cat D) FRET assay; format: biochemical; conditions: read-out: IC50 IP (μM) CatD
Recombinant Cat D, sequence (P07339 65-412): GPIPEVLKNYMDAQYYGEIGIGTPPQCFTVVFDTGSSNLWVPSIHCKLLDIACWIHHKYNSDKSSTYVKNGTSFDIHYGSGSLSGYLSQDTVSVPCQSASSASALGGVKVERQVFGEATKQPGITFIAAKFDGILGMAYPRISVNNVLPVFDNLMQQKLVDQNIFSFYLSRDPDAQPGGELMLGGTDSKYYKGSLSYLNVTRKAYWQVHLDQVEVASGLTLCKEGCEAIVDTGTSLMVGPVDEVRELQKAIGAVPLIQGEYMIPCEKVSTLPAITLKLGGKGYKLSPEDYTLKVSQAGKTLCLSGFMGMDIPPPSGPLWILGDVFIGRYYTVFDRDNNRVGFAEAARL
How it was run: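 CHO-expressed enzyme; buffer 0.05 M citrate pH 3.5, 5 mM CHAPS, 10% DMSO final. Start with FRET substrate 20 nM, 1 h incubation, Tris stop (pH to neutral), fluorescence ex 500 nm/em 580 nm.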

[4] = biological target: human recombinant BACE1 (Homo sapiens (Human), UniProt P56817); experiment: In vitro enzymatic BACE1 FRET assay; format: biochemical; conditions: read-out: IC50 IP (μM) BACE1 enzyme
human recombinant BACE1, sequence (P56817 46-501): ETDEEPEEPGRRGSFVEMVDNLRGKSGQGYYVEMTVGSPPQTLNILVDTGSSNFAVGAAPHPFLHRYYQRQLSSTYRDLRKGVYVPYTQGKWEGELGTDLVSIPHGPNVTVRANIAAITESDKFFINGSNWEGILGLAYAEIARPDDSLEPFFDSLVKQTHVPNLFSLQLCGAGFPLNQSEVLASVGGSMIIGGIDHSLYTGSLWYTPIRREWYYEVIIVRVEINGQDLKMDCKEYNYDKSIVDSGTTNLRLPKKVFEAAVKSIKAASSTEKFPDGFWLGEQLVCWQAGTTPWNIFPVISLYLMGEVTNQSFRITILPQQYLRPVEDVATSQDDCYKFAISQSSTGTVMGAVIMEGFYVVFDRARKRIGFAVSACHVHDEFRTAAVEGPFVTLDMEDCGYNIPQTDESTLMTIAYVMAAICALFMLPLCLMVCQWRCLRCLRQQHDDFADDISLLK
How it was run: as §1

SMILES	IC50 [1] [µM]	IC50 [2] [µM]	IC50 [3] [µM]	IC50 [4] [µM]	IC50 ([1]; BACE1 cell-based assay) [µM]	IC50 ([2]; BACE2 FRET enzyme assay) [µM]	IC50 ([3]; Cathepsin D FRET enzyme assay) [µM]	IC50 ([4]; BACE1 FRET enzyme assay) [µM]
COc1cnc2c(Nc3cc(F)c(F)c([C@@]4(C)N=C(N)S[C@@]5(CO)C[C@H]54)c3)ncc(F)c2c1 [Example 91, ((1S,5S,6S)-3-amino-5-(2,3-difluoro-5-((5-fluoro-3-methoxy-1,7-naphthyridin-8-yl)amino)phenyl)-5-methyl-2-thia-4-azabicyclo[4.1.0]hept-3-en-1-yl)methanol]	–	–	–	–	0.0256	0.0111	1210	0.00524
C#CCOc1cnc(C(=O)Nc2ccc(F)c([C@@]3(CF)N=C(N)S[C@@]4(c5ocnc5C)C[C@@H]34)c2)cn1 [Example 784, N-(3-((1S,5S,6S)-3-amino-5-(fluoromethyl)-1-(4-methyloxazol-5-yl)-2-thia-4-azabicyclo[4.1.0]hept-3-en-5-yl)-4-fluorophenyl)-5-(prop-2-yn-1-yloxy)pyrazine-2-carboxamide]	0.00152	< 0.00203	166	0.000318	–	–	–	–
C[C@]1(c2cc(NC(=O)c3ccc(Cl)cn3)cnc2F)N=C(N)S[C@H]2C[C@H]21 [Example 637, N-(5-((1S,5S,6S)-3-Amino-5-methyl-2-thia-4-azabicyclo[4.1.0]hept-3-en-5-yl)-6-fluoropyridin-3-yl)-5-chloropicolinamide]	0.0121	0.00261	> 400	0.0213	–	–	–	–
C#CCOc1cnc(C(=O)Nc2cc(F)c(F)c([C@@]3(C)N=C(N)S[C@@]4(CF)C[C@H]43)c2)c(C)c1 [Example 684, N-(3-((1S,5S,6S)-3-amino-1-(fluoromethyl)-5-methyl-2-thia-4-azabicyclo[4.1.0]hept-3-en-5-yl)-4,5-difluorophenyl)-3-methyl-5-(2-propyn-1-yloxy)-2-pyridinecarboxamide]	0.00684	0.0332	1040	0.00146	–	–	–	–
C#CCOc1cnc2c(Nc3cnc(OC)c([C@@]4(C)N=C(N)S[C@@]5(CF)C[C@H]54)c3)nccc2n1 [Example 611, N-(5-((1S,5S,6S)-3-amino-1-(fluoromethyl)-5-methyl-2-thia-4-azabicyclo[4.1.0]hept-3-en-5-yl)-6-methoxy-3-pyridinyl)-2-(2-propyn-1-yloxy)pyrido[3,4-b]pyrazin-5-amine]	0.00649	0.208	> 400	0.00663	–	–	–	–
COCCNC(=O)/C=C/[C@]12C[C@H]1[C@@](CF)(c1cc(NC(=O)c3ccc(Cl)cn3)ccc1F)N=C(N)S2 [Example 767, N-(3-((1R,5S,6S)-3-amino-5-(fluoromethyl)-1-((E)-3-((2-methoxyethyl)amino)-3-oxoprop-1-en-1-yl)-2-thia-4-azabicyclo[4.1.0]hept-3-en-5-yl)-4-fluorophenyl)-5-chloropicolinamide]	0.00143	< 0.00203	602	0.00102	–	–	–	–
CC#CCOc1cnc2c(Nc3cc(F)c(F)c([C@@]4(C)N=C(N)S[C@@]5(COC)C[C@H]54)c3)nccc2n1 [Example 869, N-(3-((1S,5S,6S)-3-amino-1-(methoxymethyl)-5-methyl-2-thia-4-azabicyclo[4.1.0]hept-3-en-5-yl)-4,5-difluorophenyl)-2-(2-butyn-1-yloxy)pyrido[3,4-b]pyrazin-5-amine]	0.00155	0.0173	127	0.000725	–	–	–	–
COC[C@]12C[C@H]1[C@@](C)(c1cc(Nc3nccc4cc(C#N)cnc34)cnc1F)N=C(N)S2 [Example 847, 8-((5-((1S,5S,6S)-3-amino-1-(methoxymethyl)-5-methyl-2-thia-4-azabicyclo[4.1.0]hept-3-en-5-yl)-6-fluoro-3-pyridinyl)amino)-1,7-naphthyridine-3-carbonitrile]	0.00675	0.00955	1910	0.0113	–	–	–	–
CC#CCCOc1cnc(C(=O)Nc2ccc(F)c([C@@]3(C)N=C(N)S[C@@]4(COC)C[C@H]43)c2)cn1 [Example 1047, N-(3-((1S,5S,6S)-3-amino-1-(methoxymethyl)-5-methyl-2-thia-4-azabicyclo[4.1.0]hept-3-en-5-yl)-4-fluorophenyl)-5-(3-pentyn-1-yloxy)-2-pyrazinecarboxamide]	0.015	0.189	> 400	0.0054	–	–	–	–

More lines, now with the values ahead:

IC50 [1] [µM]	IC50 [2] [µM]	IC50 [3] [µM]	IC50 [4] [µM]	IC50 ([1]; BACE1 cell-based assay) [µM]	IC50 ([2]; BACE2 FRET enzyme assay) [µM]	IC50 ([3]; Cathepsin D FRET enzyme assay) [µM]	IC50 ([4]; BACE1 FRET enzyme assay) [µM]	SMILES
0.04	0.00131	921	0.00367	–	–	–	–	N#CC[C@]12C[C@H]1[C@@](CF)(c1cc(NC(=O)c3ccc(Cl)cn3)ccc1F)N=C(N)S2 [Example 718, N-(3-((1R,5S,6S)-3-amino-1-(cyanomethyl)-5-(fluoromethyl)-2-thia-4-azabicyclo[4.1.0]hept-3-en-5-yl)-4-fluorophenyl)-5-chloro-2-pyridinecarboxamide]
0.000534	0.0108	79.4	0.000464	–	–	–	–	C#CCOc1cnc(C(=O)Nc2cc(F)c(F)c([C@@]3(C)N=C(N)S[C@@]4(C(=O)NC)C[C@H]43)c2)cn1 [Example 914, (1S,5S,6S)-3-amino-5-(2,3-difluoro-5-(((5-(2-propyn-1-yloxy)-2-pyrazinyl)carbonyl)amino)phenyl)-N,5-dimethyl-2-thia-4-azabicyclo[4.1.0]hept-3-ene-1-carboxamide]
–	–	–	–	0.047	0.0116	1390	0.0219	COc1cnc(C(=O)Nc2cc(F)c(F)c([C@@]3(CF)N=C(N)S[C@H]4C[C@H]43)c2)c(C)c1 [Example 81, N-(3-((1S,5S,6S)-3-amino-5-(fluoromethyl)-2-thia-4-azabicyclo[4.1.0]hept-3-en-5-yl)-4,5-difluorophenyl)-5-methoxy-3-methyl-2-pyridinecarboxamide]
0.00116	0.0689	215	0.00069	–	–	–	–	C#C[C@H](C)Oc1cnc(C(=O)Nc2ccc(F)c([C@@]3(C)N=C(N)S[C@@]4(C(=O)NC(C)(C)C)C[C@H]43)c2)cn1 [Example 994, (1S,5S,6S)-3-amino-N-tert-butyl-5-(2-fluoro-5-(((5-(((1S)-1-methyl-2-propyn-1-yl)oxy)-2-pyrazinyl)carbonyl)amino)phenyl)-5-methyl-2-thia-4-azabicyclo[4.1.0]hept-3-ene-1-carboxamide]
0.0115	0.0285	> 400	0.000941	–	–	–	–	C[C@]1(c2cc(Nc3nccc4nc(OCc5ncco5)cnc34)cc(F)c2F)N=C(N)S[C@@]2(C(F)F)C[C@@H]12 [Example 866, N-(3-((1S,5S,6S)-3-amino-1-(difluoromethyl)-5-methyl-2-thia-4-azabicyclo[4.1.0]hept-3-en-5-yl)-4,5-difluorophenyl)-2-(1,3-oxazol-2-ylmethoxy)pyrido[3,4-b]pyrazin-5-amine]
0.000229	0.0079	49.9	0.00014	–	–	–	–	C#CCOc1cnc(C(=O)Nc2ccc(F)c([C@@]3(C)N=C(N)S[C@@]4(C(=O)NC)C[C@H]43)c2)cn1 [Example 987, (1S,5S,6S)-3-amino-5-(2-fluoro-5-(((5-(2-propyn-1-yloxy)-2-pyrazinyl)carbonyl)amino)phenyl)-N,5-dimethyl-2-thia-4-azabicyclo[4.1.0]hept-3-ene-1-carboxamide]
1.14	0.658	94.4	0.0269	–	–	–	–	COC[C@]12C[C@H]1[C@@](C)(c1cc(Nc3nccc4cc(OCC#CC(F)(F)F)cnc34)cc(F)c1F)N=C(N)S2 [Example 741, N-(3-((1S,5S,6S)-3-amino-1-(methoxymethyl)-5-methyl-2-thia-4-azabicyclo[4.1.0]hept-3-en-5-yl)-4,5-difluorophenyl)-3-((4,4,4-trifluoro-2-butyn-1-yl)oxy)-1,7-naphthyridin-8-amine]
0.018	0.317	1240	0.0014	–	–	–	–	COC[C@]12C[C@H]1[C@@](C)(c1cc(NC(=O)c3cnc(OCC(C)C)cn3)ccc1F)N=C(N)S2 [Example 1056, N-(3-((1S,5S,6S)-3-amino-1-(methoxymethyl)-5-methyl-2-thia-4-azabicyclo[4.1.0]hept-3-en-5-yl)-4-fluorophenyl)-5-(2-methylpropoxy)-2-pyrazinecarboxamide]
0.0437	0.245	> 400	0.00832	–	–	–	–	COC[C@]12C[C@H]1[C@@](C)(c1cc(NC(=O)c3ncc(OCC(F)(F)F)nc3C)ccc1F)N=C(N)S2 [Example 620, N-(3-((1S,5S,6S)-3-amino-1-(methoxymethyl)-5-methyl-2-thia-4-azabicyclo[4.1.0]hept-3-en-5-yl)-4-fluorophenyl)-3-methyl-5-(2,2,2-trifluoroethoxy)-2-pyrazinecarboxamide]
0.0532	0.336	> 400	0.0216	–	–	–	–	C#C[C@@H](C)Oc1cnc(C(=O)Nc2ccc(F)c([C@@]3(C)N=C(N)S[C@@]4(COC)C[C@H]43)c2)cn1 [Example 988]
